# Key:
# Primary CLL cells = test: Cell apoptosis assay (DiOC6/PI flow cytometry) in primary CLL cells; type: cell-based, human; conditions: 3 μM EA; preliminary, data not shown
# [1] = test system: NFATc-mediated transcription; test: NFAT reporter assay in HEK293 cells; type: cell-based, human; conditions: 50 μM EA, 24 hours
# Description: (§1) FIG. 1. Inhibition of Wnt/β-catenin signaling by EA. […] Cells were lysed and luciferase activity was quantified. Total protein levels were determined by Bradford Assay and serve as a control for total cell number. (B) HEK293 cells were co-transfected with TOPflash reporter construct, along with expression plasmids for Wnt1, Wnt3, LRP6, Dvl and β-catenin as indicated. […] (C) HEK293 cells were transfected with FOPflash reporter with or without an expression plasmid for β-catenin. […] (D) HEK293 cells were transfected with NFAT reporter and expression plasmid for NFATc. […] The results are expressed as fold induction of luciferase activity compared to the basal level, and are the means of three experiments±SEM. For screening of the drug library, HEK293 cells were grown for at least 24 hours in 10 cm plates prior to transfection. At 50% confluence, cells were transfected with 5 μg of TOPflash reporter, 1 μg expression vector for Dvl, 1 μg of control plasmid pCMXβgal and carrier DNA pcDNA3 plasmid for a total of 10 μg/plate. After transfection for 24 hours, cells were harvested and dispersed in 96-well microtiter plates. […] Then luciferase values were determined. In the Results section, data are expressed as fold stimulation of luciferase activity compared to the basal level. […]
# CLL cells = test: Levels of O2− or H2O2 in CLL cells treated with EA; type: cell-based, human; conditions: results not shown
# [2] = test system: LEF-1, cyclin D1 and fibronectin mRNA; test: Real-time PCR of Wnt target genes in CLL cells; type: cell-based, human; conditions: CLL cells from three patients, 16 hours
# Wnt/β-catenin signaling [3] = test: TOPflash reporter assay in transfected HEK293 cells; type: cell-based, human
# MCF-7 = test: Cytotoxicity of EA in tumor cell line MCF-7; type: cell-based; conditions: Homo sapiens, MCF7, mean of at least two experiments
# SW480 = test: Cytotoxicity of EA in tumor cell line SW480; type: cell-based; conditions: Homo sapiens, mean of at least two experiments
# LNCap = test: Cytotoxicity of EA in tumor cell line LNCap; type: cell-based; conditions: Homo sapiens, mean of at least two experiments
# RAMOS = test: Cytotoxicity of EA in tumor cell line RAMOS; type: cell-based; conditions: Homo sapiens, mean of at least two experiments
# Wnt/β-catenin signaling [4] = test: TOPflash reporter assay in SW480 cells; type: cell-based, human; conditions: 24 hours
# Description: FIG. 7. EA destabilizes the LEF-1/β-catenin complex. (A) SW480 cells were treated with increasing amounts of EA for 16 hours. Cells were lysed, and IP was completed with anti-β-catenin monoclonal antibody. The immune complexes were analyzed by immunoblotting with anti-LEF-1, anti-α-catenin and anti-β-catenin antibodies. (B) EA inhibits Wnt/β-catenin signaling in SW480 cells. SW480 cells were transfected with TOPflash reporter and control plasmid pCMXβgal. After transfection for 24 hours, cells were treated with increasing concentrations of EA for another 24 hours as indicated. Cells were then harvested and luciferase values were determined. The results are expressed as relative luciferase activity (%) normalized to a β-galactosidase control. For screening of the drug library, HEK293 cells were grown for at least 24 hours in 10 cm plates prior to transfection. At 50% confluence, cells were transfected with 5 μg of TOPflash reporter, 1 μg expression vector for Dvl, 1 μg of control plasmid pCMXβgal and carrier DNA pcDNA3 plasmid for a total of 10 μg/plate. After transfection for 24 hours, cells were harvested and dispersed in 96-well microtiter plates. […] Then luciferase values were determined. In the Results section, data are expressed as fold stimulation of luciferase activity compared to the basal level. […]
# HepG2 = test: Cytotoxicity of EA in tumor cell line HepG2; type: cell-based; conditions: Homo sapiens, mean of at least two experiments
# Fzd5 mRNA = test: Real-time PCR of Fzd5 in CLL cells; type: cell-based, human; conditions: CLL cells from three patients, 16 hours
# FOPflash reporter = FOPflash reporter assay in HEK293 cells; type: cell-based, human; conditions: 50 μM EA, 24 hours
# Description: as §1
smiles,measurement,setting,value
"C=C(CC)C(=O)c1ccc(OCC(=O)O)c(Cl)c1Cl [Compound 1, Ethacrynic acid]",effect on fludarabine-mediated apoptosis of CLL cells,Primary CLL cells,enhanced
same,effect on NFATc-mediated transcription from a NFAT reporter,[1],did not block
same,levels of O2− or H2O2 in CLL cells,CLL cells,no significant increase
same,"LEF-1, cyclin D1 and fibronectin mRNA expression",[2],decreased
same,"effect on Wnt1/LRP6 or Wnt3/LRP6, Dvl, and β-catenin-induced transcription","Wnt/β-catenin signaling [3]; 50 μM EA, 24 hours",reduced
same,inhibition of TOPflash activity (drug library screen),"Wnt/β-catenin signaling [3]; Dvl-activated, generally at 10 μM and 50 μM, overnight",≥ 30%
same,IC50,MCF-7,63 µM
same,IC50,SW480,68 µM
same,IC50,LNCap,46 µM
same,IC50,RAMOS,174 µM
same,concentrations with dose-dependent inhibition of TOPflash activity,Wnt/β-catenin signaling [4],≥ 60 µM
same,IC50,HepG2,223 µM
same,Fzd5 expression,Fzd5 mRNA,dose-dependent enhancement
same,effect on the FOPflash reporter,FOPflash reporter,no effect

# Reference: patent US20110306671A1, “AMIDE DERIVATIVES OF ETHACRYNIC ACID” (The Regents of the The University of California, priority 2008, published 2011)
